From PubChem BioAssay AID248 (DTP/NCI, 2004)
“And” between values parts separate entries of the source, which are not always exact repeats. Equal entries are not always repeated. Inconclusive results and toxic doses are left out. Cut-off read from the data, not from the text of the source: active = T/C of 150% or more; inactive = T/C below 125%.

Tested on: L1210 leukemia ip in BDF1 mice, survival T/C
Assay: NCI In Vivo Anticancer Drug Screen. Data for tumor model L1210 Leukemia (intraperitoneal) in B6D2F1 (BDF1) mice
Conditions: endpoint: mean survival time, higher = longer survival
Method in brief: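 In this screen, tumor-bearing mice given compound are compared to those given vehicle, and their survival values are reported as a treated-to-control quotient.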

[1] = dose: 100.0 mg/kg/injection, schedule: Q01DX009 (ip), vehicle: saline with Tween-80
[2] = dose: 100.0 mg/kg/injection, schedule: Q01DX001 (ip), vehicle: saline
[3] = dose: 200.0 mg/kg/injection, schedule: Q01DX001 (ip), vehicle: saline
[4] = dose: 400.0 mg/kg/injection, schedule: Q01DX001 (ip), vehicle: saline
[5] = dose: 100.0 mg/kg/injection, schedule: Q04DX003 (ip), vehicle: Klucel (hydroxypropylcellulose) (HPC)
[6] = dose: 200.0 mg/kg/injection, schedule: Q04DX003 (ip), vehicle: Klucel (hydroxypropylcellulose) (HPC)
[7] = dose: 400.0 mg/kg/injection, schedule: Q04DX003 (ip), vehicle: Klucel (hydroxypropylcellulose) (HPC)
[8] = dose: 100.0 mg/kg/injection, schedule: Q01DX009 (ip), vehicle: acetone

Measured: T/C

C[CH2][Pb]([CH2]C)([CH2]C)[O]C(=O)C(Cl)(Cl)Cl
inactive: dose: 0.39 mg/kg/injection, schedule: Q01DX009 (ip), vehicle: other 101 % of control and 105 % of control | dose: 0.78 mg/kg/injection, schedule: Q01DX009 (ip), vehicle: other 102 % of control and 90 % of control | dose: 1.5 mg/kg/injection, schedule: Q01DX001 (ip), vehicle: other 113 % of control | dose: 1.5 mg/kg/injection, schedule: Q04DX002 (ip), vehicle: other 100 % of control | dose: 1.56 mg/kg/injection, schedule: Q01DX009 (ip), vehicle: other 93 % of control | dose: 3.0 mg/kg/injection, schedule: Q01DX001 (ip), vehicle: other 103 % of control | dose: 3.0 mg/kg/injection, schedule: Q04DX002 (ip), vehicle: other 100 % of control | dose: 6.0 mg/kg/injection, schedule: Q01DX001 (ip), vehicle: other 107 % of control | dose: 6.0 mg/kg/injection, schedule: Q04DX002 (ip), vehicle: other 109 % of control | dose: 6.25 mg/kg/injection, schedule: Q04DX003 (ip), vehicle: other 92 % of control | dose: 12.0 mg/kg/injection, schedule: Q04DX002 (ip), vehicle: other 101 % of control | dose: 12.5 mg/kg/injection, schedule: Q01DX001 (ip), vehicle: other 89 % of control | dose: 12.5 mg/kg/injection, schedule: Q04DX003 (ip), vehicle: other 97 % of control | dose: 25.0 mg/kg/injection, schedule: Q01DX001 (ip), vehicle: other 100 % of control | dose: 25.0 mg/kg/injection, schedule: Q04DX002 (ip), vehicle: carboxymethylcellulose (CMC) 94 % of control and 102 % of control | dose: 25.0 mg/kg/injection, schedule: Q04DX003 (ip), vehicle: other 87 % of control

COc1ccc(O)c(C=O)c1
inactive: [1] 108 % of control

O=c1[nH]c(NC2OC(CO)C(O)C2O)nc2c1ncn2C1(CO)CC(O)(CO)O1 (stereo not given)
inactive: dose: 100.0 mg/kg/injection, schedule: Q01DX005 (ip), vehicle: saline 93 % of control | dose: 200.0 mg/kg/injection, schedule: Q01DX005 (ip), vehicle: saline 98 % of control

CC(=O)OCCc1nnnn1C
inactive: [2] 108 % of control | [3] 104 % of control | [4] 103 % of control

Cc1cc(N(C)C)cc(C)c1N=Nc1cc(Cl)ccc1Cl
inactive: [5] 94 % of control | [6] 96 % of control | [7] 87 % of control

CC1=NCC(C)(C)O1
inactive: dose: 100.0 mg/kg/injection, schedule: Q04DX003 (ip), vehicle: saline with Tween-80 98 % of control | dose: 200.0 mg/kg/injection, schedule: Q04DX003 (ip), vehicle: saline with Tween-80 95 % of control | dose: 400.0 mg/kg/injection, schedule: Q04DX003 (ip), vehicle: saline with Tween-80 98 % of control

c1ccc2cc(-c3cc4ccccc4s3)ccc2c1
inactive: [2] 106 % of control | [8] 98 % of control | dose: 100.0 mg/kg/injection, schedule: Q04DX003 (ip), vehicle: acetone 100 % of control | [3] 103 % of control | dose: 200.0 mg/kg/injection, schedule: Q01DX009 (ip), vehicle: acetone 104 % of control | dose: 200.0 mg/kg/injection, schedule: Q04DX003 (ip), vehicle: acetone 98 % of control | dose: 264.0 mg/kg/injection, schedule: Q01DX009 (ip), vehicle: saline 110 % of control | [4] 104 % of control | dose: 400.0 mg/kg/injection, schedule: Q01DX009 (ip), vehicle: saline 115 % of control | dose: 400.0 mg/kg/injection, schedule: Q04DX003 (ip), vehicle: acetone 90 % of control

CCC(CC)(CCN)c1ccccc1
inactive: dose: 50.0 mg/kg/injection, schedule: Q01DX001 (ip), vehicle: carboxymethylcellulose (CMC) 90 % of control | dose: 100.0 mg/kg/injection, schedule: Q01DX001 (ip), vehicle: carboxymethylcellulose (CMC) 93 % of control

CC1(C)CCC2CCCCC2O1 (stereo not given)
inactive: [2] 102 % of control | [3] 98 % of control | [4] 96 % of control

O=C(/C=C(\Cl)C(=O)NO)NO
inactive: [8] 102 % of control

Cn1c(=O)c2ccc(C(=O)O)cc2c(=O)n1C
inactive: dose: 12.5 mg/kg/injection, schedule: Q04DX003 (ip), vehicle: saline 97 % of control | dose: 25.0 mg/kg/injection, schedule: Q04DX003 (ip), vehicle: saline 98 % of control | dose: 50.0 mg/kg/injection, schedule: Q04DX003 (ip), vehicle: saline 103 % of control | dose: 100.0 mg/kg/injection, schedule: Q04DX003 (ip), vehicle: saline 106 % of control | dose: 200.0 mg/kg/injection, schedule: Q04DX003 (ip), vehicle: saline 92 % of control | dose: 400.0 mg/kg/injection, schedule: Q04DX003 (ip), vehicle: saline 98 % of control

Cn1c2c(c3ccccc31)=NN1CCN=C1N=2
inactive: dose: 6.25 mg/kg/injection, schedule: Q04DX002 (ip), vehicle: saline 107 % of control | dose: 12.5 mg/kg/injection, schedule: Q04DX002 (ip), vehicle: saline 103 % of control

Cc1ccc([N+](=O)[O-])cc1NC(=O)SCc1ccccc1
inactive: [5] 93 % of control | [6] 102 % of control | [7] 105 % of control

CCN(CC)CCOC(=O)c1ccc(Cl)cc1
inactive: dose: 50.0 mg/kg/injection, schedule: Q01DX009 (ip), vehicle: saline 100 % of control | dose: 100.0 mg/kg/injection, schedule: Q01DX009 (ip), vehicle: saline 96 % of control | dose: 200.0 mg/kg/injection, schedule: Q01DX009 (ip), vehicle: saline 96 % of control

C=CCOc1ccc2c(C)cc(=O)oc2c1C
inactive: dose: 100.0 mg/kg/injection, schedule: Q01DX008 (ip), vehicle: Klucel (hydroxypropylcellulose) (HPC) 93 % of control | dose: 100.0 mg/kg/injection, schedule: Q01DX009 (ip), vehicle: Klucel (hydroxypropylcellulose) (HPC) 94 % of control | [5] 96 % of control | dose: 200.0 mg/kg/injection, schedule: Q01DX008 (ip), vehicle: Klucel (hydroxypropylcellulose) (HPC) 88 % of control | dose: 200.0 mg/kg/injection, schedule: Q01DX009 (ip), vehicle: Klucel (hydroxypropylcellulose) (HPC) 96 % of control | [6] 96 % of control | dose: 400.0 mg/kg/injection, schedule: Q01DX008 (ip), vehicle: Klucel (hydroxypropylcellulose) (HPC) 86 % of control | dose: 400.0 mg/kg/injection, schedule: Q01DX009 (ip), vehicle: Klucel (hydroxypropylcellulose) (HPC) 97 % of control | [7] 96 % of control

Cc1ccc(C(O)(c2ccc(C)cc2)C2C(c3ccccc3)N2C)cc1 (stereo not given)
inactive: dose: 100.0 mg/kg/injection, schedule: Q01DX001 (ip), vehicle: Klucel (hydroxypropylcellulose) (HPC) 98 % of control | dose: 200.0 mg/kg/injection, schedule: Q01DX001 (ip), vehicle: Klucel (hydroxypropylcellulose) (HPC) 96 % of control | dose: 400.0 mg/kg/injection, schedule: Q01DX001 (ip), vehicle: Klucel (hydroxypropylcellulose) (HPC) 102 % of control

Cc1nc(-c2ccc(N=Cc3ccc(N(CCCOS(C)(=O)=O)CCCOS(C)(=O)=O)cc3C)cc2)c(C)s1
inactive: [1] 100 % of control | dose: 200.0 mg/kg/injection, schedule: Q01DX009 (ip), vehicle: saline with Tween-80 93 % of control

Clc1ccccc1C(c1ccc(I)cc1)C(Cl)Cl (stereo not given)
inactive: [2] 101 % of control | [3] 93 % of control | [4] 104 % of control
